Laboratory results taken from ChEMBL document CHEMBL2010729, “Facile synthesis of triterpenoid saponins bearing β-Glu/Gal-(1→3)-β-GluA methyl ester and their cytotoxic activities” (Bioorg Med Chem Lett, 2012).
Calls of active or inactive are those of the source. The rule behind the calls is not given here.

Assays:
MCF7 [1] = test: Cytotoxicity against human MCF7 cells after 48 hrs by MTT assay; assay type: functional, cell-based; conditions: MCF7, 48 h
HepG2 = test: Cytotoxicity against human HepG2 cells after 48 hrs by MTT assay; assay type: functional, cell-based; conditions: HepG2, 48 h
K562 = test: Cytotoxicity against human K562 cells after 48 hrs by MTT assay; assay type: functional, cell-based; conditions: K562, 48 h
MCF7 [2] = test: Induction of apoptosis in human MCF7 cells assessed as apoptotic cells at 1 uM after 24 hrs using propidium iodide/annexin V staining by flow cytometry (reference value: 3.07 %); assay type: functional
MCF7 [3] = test: Induction of apoptosis in human MCF7 cells assessed as cell shrinkage at 1 to 3 uM after 24 hrs by DAPI staining based confocal laser scanning microscopy; assay type: functional
MCF7 [4] = test: Induction of apoptosis in human MCF7 cells assessed as membrane blebbing at 1 to 3 uM after 24 hrs by DAPI staining based confocal laser scanning microscopy; assay type: functional, cell-based
MCF7 [5] = test: Induction of apoptosis in human MCF7 cells assessed as chromatin condensation at 1 to 3 uM after 24 hrs by DAPI staining based confocal laser scanning microscopy; assay type: functional, cell-based
MCF7 [6] = test: Induction of apoptosis in human MCF7 cells assessed as apoptotic body formation at 1 to 3 uM after 24 hrs by DAPI staining based confocal laser scanning microscopy; assay type: functional, cell-based
MCF7 [7] = test: Induction of apoptosis in human MCF7 cells assessed as late apoptotic cells at 1 uM after 24 hrs using propidium iodide/annexin V staining by flow cytometry (reference value: 0.11 %); assay type: functional
MCF7 [8] = test: Induction of apoptosis in human MCF7 cells assessed as pre-necrotic cells at 1 uM after 24 hrs using propidium iodide/annexin V staining by flow cytometry (reference value: 0.05 %); assay type: functional
MCF7 [9] = test: Induction of apoptosis in human MCF7 cells assessed as apoptotic cells at 2 uM after 24 hrs using propidium iodide/annexin V staining by flow cytometry (reference value: 3.07 %); assay type: functional
MCF7 [10] = test: Induction of apoptosis in human MCF7 cells assessed as late apoptotic cells at 2 uM after 24 hrs using propidium iodide/annexin V staining by flow cytometry (reference value: 0.11 %); assay type: functional
MCF7 [11] = test: Induction of apoptosis in human MCF7 cells assessed as pre-necrotic cells at 2 uM after 24 hrs using propidium iodide/annexin V staining by flow cytometry (reference value: 0.05 %); assay type: functional
MCF7 [12] = test: Induction of apoptosis in human MCF7 cells assessed as apoptotic cells at 3 uM after 24 hrs using propidium iodide/annexin V staining by flow cytometry (reference value: 3.07 %); assay type: functional
MCF7 [13] = test: Induction of apoptosis in human MCF7 cells assessed as late apoptotic cells at 3 uM after 24 hrs using propidium iodide/annexin V staining by flow cytometry (reference value: 0.11 %); assay type: functional
MCF7 [14] = test: Induction of apoptosis in human MCF7 cells assessed as pre-necrotic cells at 3 uM after 24 hrs using propidium iodide/annexin V staining by flow cytometry (reference value: 0.05 %); assay type: functional
MCF7 [15] = test: Induction of apoptosis in human MCF7 cells assessed as increase in ROS production after 24 hrs by fluorescence analysis; assay type: functional, cell-based
MCF7 [16] = test: Induction of apoptosis in human MCF7 cells assessed as loss of mitochondrial membrane potential by JC-1 staining based flow cytometry; assay type: functional, cell-based

COC(=O)[C@H]1O[C@@H](O[C@H]2CC[C@]3(C)[C@H]4CC=C5[C@@H]6CC(C)(C)CC[C@]6(C(=O)O)CC[C@@]5(C)[C@]4(C)CC[C@H]3C2(C)C)[C@H](O)[C@@H](O[C@@H]2O[C@H](CO)[C@@H](O)[C@H](O)[C@H]2O)[C@@H]1O [SPINASAPONIN A METHYL ESTER]
IC50 (MCF7 [1]): 4.52 µM | IC50 (HepG2): 8.36 µM | IC50 (K562): 15.7 µM

COC(=O)[C@H]1O[C@@H](O[C@H]2CC[C@]3(C)[C@H]4C(=O)C=C5[C@@H]6C[C@@](C)(C(=O)O)CC[C@]6(C)CC[C@@]5(C)[C@]4(C)CC[C@H]3C2(C)C)[C@H](O)[C@@H](O[C@@H]2O[C@H](CO)[C@@H](O)[C@H](O)[C@H]2O)[C@@H]1O
IC50 (MCF7 [1]): > 60 µM | IC50 (HepG2): > 60 µM | IC50 (K562): > 60 µM

COC(=O)[C@H]1O[C@@H](O[C@H]2CC[C@]3(C)[C@H]4C(=O)C=C5[C@@H]6C[C@@](C)(C(=O)O)CC[C@]6(C)CC[C@@]5(C)[C@]4(C)CC[C@H]3C2(C)C)[C@H](O)[C@@H](O[C@@H]2O[C@H](CO)[C@H](O)[C@H](O)[C@H]2O)[C@@H]1O
IC50 (MCF7 [1]): > 60 µM | IC50 (HepG2): > 60 µM | IC50 (K562): > 60 µM

COC(=O)[C@H]1O[C@@H](O[C@H]2CC[C@]3(C)[C@H]4CC=C5[C@@H]6[C@@H](C)[C@H](C)CC[C@]6(C(=O)O)CC[C@@]5(C)[C@]4(C)CC[C@H]3C2(C)C)[C@H](O)[C@@H](O[C@@H]2O[C@H](CO)[C@H](O)[C@H](O)[C@H]2O)[C@@H]1O
IC50 (MCF7 [1]): 22.1 µM | IC50 (HepG2): 47.1 µM | IC50 (K562): > 60 µM

COC(=O)[C@H]1O[C@@H](O[C@H]2CC[C@]3(C)[C@H]4CC=C5[C@@H]6CC(C)(C)CC[C@]6(C(=O)O)CC[C@@]5(C)[C@]4(C)CC[C@H]3C2(C)C)[C@H](O)[C@@H](O[C@@H]2O[C@H](CO)[C@H](O)[C@H](O)[C@H]2O)[C@@H]1O
Activity (MCF7 [2]): 4.33% | IC50 (MCF7 [1]): 1.87 µM | IC50 (HepG2): 2.24 µM | IC50 (K562): 2.36 µM | Activity (MCF7 [3]): Active | Activity (MCF7 [4]): Active | Activity (MCF7 [5]): Active | Activity (MCF7 [6]): Active | Activity (MCF7 [7]): 8.43% | Activity (MCF7 [8]): 2.2% | Activity (MCF7 [9]): 2.42% | Activity (MCF7 [10]): 18.44% | Activity (MCF7 [11]): 2.84% | Activity (MCF7 [12]): 3.26% | Activity (MCF7 [13]): 29.61% | Activity (MCF7 [14]): 18.81% | Activity (MCF7 [15]): Dose-dependent effect | Activity (MCF7 [16]): Dose-dependent effect

COC(=O)[C@H]1O[C@@H](O[C@H]2CC[C@]3(C)[C@H]4CC=C5[C@@H]6[C@@H](C)[C@H](C)CC[C@]6(C(=O)O)CC[C@@]5(C)[C@]4(C)CC[C@H]3C2(C)C)[C@H](O)[C@@H](O[C@@H]2O[C@H](CO)[C@@H](O)[C@H](O)[C@H]2O)[C@@H]1O
IC50 (MCF7 [1]): 23.3 µM | IC50 (HepG2): 44.7 µM | IC50 (K562): > 60 µM
